Results from BindingDB's records for patent US20240425513 (Carmot Therapeutics, 2024).

Biological target: T1, Ubiquitin carboxyl-terminal hydrolase 28 (Homo sapiens, UniProt Q96RU2)
T1 sequence (Q96RU2 whole entry): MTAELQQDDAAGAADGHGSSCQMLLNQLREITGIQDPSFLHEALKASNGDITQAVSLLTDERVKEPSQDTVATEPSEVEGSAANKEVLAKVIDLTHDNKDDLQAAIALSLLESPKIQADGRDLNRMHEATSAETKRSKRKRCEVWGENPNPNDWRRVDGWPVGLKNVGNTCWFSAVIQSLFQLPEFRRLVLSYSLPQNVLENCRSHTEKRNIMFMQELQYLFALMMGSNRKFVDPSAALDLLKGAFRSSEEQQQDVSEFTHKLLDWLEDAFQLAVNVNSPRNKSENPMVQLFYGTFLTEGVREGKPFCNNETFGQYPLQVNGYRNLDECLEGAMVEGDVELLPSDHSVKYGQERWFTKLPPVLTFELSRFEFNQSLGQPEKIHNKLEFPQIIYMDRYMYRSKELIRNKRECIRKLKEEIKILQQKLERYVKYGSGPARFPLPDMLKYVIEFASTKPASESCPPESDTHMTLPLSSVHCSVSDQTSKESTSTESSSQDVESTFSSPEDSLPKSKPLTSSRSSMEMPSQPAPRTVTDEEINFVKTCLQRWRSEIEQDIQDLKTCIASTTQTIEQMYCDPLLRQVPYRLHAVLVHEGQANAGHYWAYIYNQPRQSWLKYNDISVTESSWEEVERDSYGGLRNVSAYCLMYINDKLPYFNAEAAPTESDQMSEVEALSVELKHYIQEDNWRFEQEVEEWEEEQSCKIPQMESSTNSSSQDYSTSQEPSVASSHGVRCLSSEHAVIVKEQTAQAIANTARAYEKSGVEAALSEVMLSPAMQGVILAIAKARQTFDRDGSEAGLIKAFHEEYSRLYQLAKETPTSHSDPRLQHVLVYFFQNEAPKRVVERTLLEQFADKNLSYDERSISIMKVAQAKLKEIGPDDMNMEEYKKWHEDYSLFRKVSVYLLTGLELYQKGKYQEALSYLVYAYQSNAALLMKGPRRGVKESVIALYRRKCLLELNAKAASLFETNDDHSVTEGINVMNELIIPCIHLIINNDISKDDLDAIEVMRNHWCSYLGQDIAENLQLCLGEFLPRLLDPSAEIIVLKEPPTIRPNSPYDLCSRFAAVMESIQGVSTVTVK
Test: Ubiquitin-Rhodamine 110 Assay
Experimental: Enzyme (His6 USP28, BostonBiochem, #E-570) concentration and incubation times were optimized for the maximal signal to background while maintaining the initial velocity conditions at a fixed substrate concentration. […] 2 μl of 4× enzyme was added to assay plates (pre stamped with compound) and incubated for 2 h at room temperature. […] of 4× substrate was subsequently added to the assay plates and incubated for 2 h at room temperature.

## CC(Oc1ccc(-c2nc(Cc3cccc(Cl)c3)no2)cc1)C(=O)N[C@@H]1C[C@@H](C)N(C#N)C1 (stereo partly specified) [US20240425513, Example 11]
  IC50: > 1000 nM
